Data: patent US20060235076A1, “Medicinal composition for treating infection with drug-resistant staphylococcus aureus” (priority 2003, published 2006)
≈ marks a conversion by molar mass, not a printed value. Where two headings read alike, the source gives them in different places.

Test system: MRSA and MSSA
Assay: Antibacterial activity of gallic acid, various gallates and multivalent phenol derivatives alone (agar plate dilution method, MIC)
Type: cell-based, Staphylococcus aureus
Settings: Staphylococcus aureus
Protocol: According to the agar plate dilution method defined by Japan Society of Chemotherapy, MIC (Minimum inhibitory concentration) was determined. CAMHA was prepared by adding 50 mg/l of Ca-ion, 25 mg/l of Mg-ion, and 2% of NaCl to Mueller-Hinton II Agar (MHA), and it was used as a medium for use in the measurement of sensitivity. The bacterial liquid was incubated at 37° C. overnight and diluted to 10^6 CFU/ml with saline.
MIC for gallic acid, various gallates and multivalent phenol derivatives alone with MRSA and MSSA were determined as described in experiment 2.

[1] = ATCC 6538 / MRSA / MSSA, ATCC6538, read-out: MIC alone
[2] = MSSA #1003, read-out: MIC alone
[3] = MSSA #1010, read-out: MIC alone
[4] = MSSA #1020, read-out: MIC alone
[5] = MSSA #1023, read-out: MIC alone
[6] = MSSA #1029, read-out: MIC alone
[7] = MSSA #1032, read-out: MIC alone
[8] = compound alone, over all strains of Table 3-1, read-out: MIC50
[9] = COL, compound alone, read-out: MIC
[10] = MRSA #1, compound alone, read-out: MIC
[11] = MRSA #2, compound alone, read-out: MIC
[12] = MRSA #3, compound alone, read-out: MIC
[13] = MRSA #4, compound alone, read-out: MIC
[14] = MRSA #5, compound alone, read-out: MIC
[15] = MRSA #6, compound alone, read-out: MIC
[16] = MRSA #7, compound alone, read-out: MIC
[17] = MRSA #8, compound alone, read-out: MIC
[18] = MRSA #9, compound alone, read-out: MIC
[19] = MRSA #10, compound alone, read-out: MIC
[20] = MRSA #12, compound alone, read-out: MIC
[21] = MRSA #16, compound alone, read-out: MIC
[22] = MRSA #17, compound alone, read-out: MIC
[23] = MRSA #18, compound alone, read-out: MIC
[24] = MRSA #20, compound alone, read-out: MIC
[25] = MRSA #21, compound alone, read-out: MIC
[26] = MRSA #22, compound alone, read-out: MIC
[27] = MRSA #24, compound alone, read-out: MIC
[28] = MSSA #1003, compound alone, read-out: MIC
[29] = MSSA #1010, compound alone, read-out: MIC
[30] = MSSA #1020, compound alone, read-out: MIC
[31] = MSSA #1023, compound alone, read-out: MIC
[32] = MSSA #1029, compound alone, read-out: MIC
[33] = MSSA #1032, compound alone, read-out: MIC

Q: How did the MIC [1] turn out when O=C(O)c1cc(O)c(O)c(O)c1 [Gallic acid, gallic acid, reference compound] was run?
A: 62.5 µg/mL (≈ 367 µM)

Q: And the MIC (COL, read-out: MIC alone)?
A: 62.5 µg/mL (≈ 367 µM)

Q: And the MIC (MRSA #1, read-out: MIC alone)?
A: 31.3 µg/mL (≈ 184 µM)

Q: And the MIC (MRSA #2, read-out: MIC alone)?
A: 62.5 µg/mL (≈ 367 µM)

Q: What about the MIC (MRSA #3, read-out: MIC alone) of the same compound?
A: 31.3 µg/mL (≈ 184 µM)

Q: What about the MIC (MRSA #4, read-out: MIC alone) of the same compound?
A: 62.5 µg/mL (≈ 367 µM)

Q: What about the MIC (MRSA #5, read-out: MIC alone) of the same compound?
A: 31.3 µg/mL (≈ 184 µM)

Q: And the MIC (MRSA #6, read-out: MIC alone)?
A: 31.3 µg/mL (≈ 184 µM)

Q: What about the MIC (MRSA #7, read-out: MIC alone) of the same compound?
A: 62.5 µg/mL (≈ 367 µM)

Q: What about the MIC (MRSA #8, read-out: MIC alone) of the same compound?
A: 31.3 µg/mL (≈ 184 µM)

Q: And the MIC (MRSA #9, read-out: MIC alone)?
A: 31.3 µg/mL (≈ 184 µM)

Q: And the MIC (MRSA #10, read-out: MIC alone)?
A: 31.3 µg/mL (≈ 184 µM)

Q: What about the MIC (MRSA #12, read-out: MIC alone) of the same compound?
A: 62.5 µg/mL (≈ 367 µM)

Q: What about the MIC (MRSA #16, read-out: MIC alone) of the same compound?
A: 31.3 µg/mL (≈ 184 µM)

Q: And the MIC (MRSA #17, read-out: MIC alone)?
A: 62.5 µg/mL (≈ 367 µM)

Q: What about the MIC (MRSA #18, read-out: MIC alone) of the same compound?
A: 62.5 µg/mL (≈ 367 µM)

Q: What about the MIC (MRSA #20, read-out: MIC alone) of the same compound?
A: 62.5 µg/mL (≈ 367 µM)

Q: And the MIC (MRSA #21, read-out: MIC alone)?
A: 62.5 µg/mL (≈ 367 µM)

Q: And the MIC (MRSA #22, read-out: MIC alone)?
A: 62.5 µg/mL (≈ 367 µM)

Q: What about the MIC (MRSA #24, read-out: MIC alone) of the same compound?
A: 62.5 µg/mL (≈ 367 µM)

Q: And the MIC [2]?
A: 62.5 µg/mL (≈ 367 µM)

Q: What about the MIC [3] of the same compound?
A: 62.5 µg/mL (≈ 367 µM)

Q: And the MIC [4]?
A: 62.5 µg/mL (≈ 367 µM)

Q: What about the MIC [5] of the same compound?
A: 31.3 µg/mL (≈ 184 µM)

Q: And the MIC [6]?
A: 31.3 µg/mL (≈ 184 µM)

Q: And the MIC [7]?
A: 31.3 µg/mL (≈ 184 µM)

Q: What about the MIC50 [8] of the same compound?
A: 62.5 µg/mL (≈ 367 µM)

Q: With COC(=O)c1cc(O)c(O)c(O)c1 [Methyl gallate, methyl gallate] as the compound, how does the MIC [1] read?
A: 250 µg/mL (≈ 1360 µM)

Q: What about the MIC (COL, read-out: MIC alone) of the same compound?
A: 250 µg/mL (≈ 1360 µM)

Q: And the MIC (MRSA #1, read-out: MIC alone)?
A: 250 µg/mL (≈ 1360 µM)

Q: And the MIC (MRSA #2, read-out: MIC alone)?
A: 125 µg/mL (≈ 679 µM)

Q: And the MIC (MRSA #3, read-out: MIC alone)?
A: 250 µg/mL (≈ 1360 µM)

Q: And the MIC (MRSA #4, read-out: MIC alone)?
A: 125 µg/mL (≈ 679 µM)

Q: And the MIC (MRSA #5, read-out: MIC alone)?
A: 250 µg/mL (≈ 1360 µM)

Q: And the MIC (MRSA #6, read-out: MIC alone)?
A: 125 µg/mL (≈ 679 µM)

Q: And the MIC (MRSA #7, read-out: MIC alone)?
A: 250 µg/mL (≈ 1360 µM)

Q: What about the MIC (MRSA #8, read-out: MIC alone) of the same compound?
A: 250 µg/mL (≈ 1360 µM)

Q: And the MIC (MRSA #9, read-out: MIC alone)?
A: 62.5 µg/mL (≈ 339 µM)

Q: And the MIC (MRSA #10, read-out: MIC alone)?
A: 62.5 µg/mL (≈ 339 µM)

Q: And the MIC (MRSA #12, read-out: MIC alone)?
A: 250 µg/mL (≈ 1360 µM)

Q: And the MIC (MRSA #16, read-out: MIC alone)?
A: 125 µg/mL (≈ 679 µM)

Q: What about the MIC (MRSA #17, read-out: MIC alone) of the same compound?
A: 125 µg/mL (≈ 679 µM)

Q: And the MIC (MRSA #18, read-out: MIC alone)?
A: 125 µg/mL (≈ 679 µM)

Q: And the MIC (MRSA #20, read-out: MIC alone)?
A: 250 µg/mL (≈ 1360 µM)

Q: What about the MIC (MRSA #21, read-out: MIC alone) of the same compound?
A: 250 µg/mL (≈ 1360 µM)

Q: What about the MIC (MRSA #22, read-out: MIC alone) of the same compound?
A: 250 µg/mL (≈ 1360 µM)

Q: What about the MIC (MRSA #24, read-out: MIC alone) of the same compound?
A: 250 µg/mL (≈ 1360 µM)

Q: What about the MIC [2] of the same compound?
A: 250 µg/mL (≈ 1360 µM)

Q: What about the MIC [3] of the same compound?
A: 250 µg/mL (≈ 1360 µM)

Q: And the MIC [4]?
A: 250 µg/mL (≈ 1360 µM)

Q: What about the MIC [5] of the same compound?
A: 125 µg/mL (≈ 679 µM)

Q: And the MIC [6]?
A: 62.5 µg/mL (≈ 339 µM)

Q: What about the MIC [7] of the same compound?
A: 250 µg/mL (≈ 1360 µM)

Q: What about the MIC50 [8] of the same compound?
A: 250 µg/mL (≈ 1360 µM)

Q: Which MIC50 does the source give for CCCC(=O)c1cc(O)c(O)cc1O [2′,4′,5′-trihydroxybutyrophenone] here?
A: 125 µg/mL (≈ 637 µM)

Q: And the MIC (ATCC 6538 / MRSA / MSSA)?
A: 125 µg/mL (≈ 637 µM)

Q: And the MIC [9]?
A: 125 µg/mL (≈ 637 µM)

Q: And the MIC [10]?
A: 62.5 µg/mL (≈ 319 µM)

Q: And the MIC [11]?
A: 125 µg/mL (≈ 637 µM)

Q: And the MIC [12]?
A: 62.5 µg/mL (≈ 319 µM)

Q: And the MIC [13]?
A: 125 µg/mL (≈ 637 µM)

Q: What about the MIC [14] of the same compound?
A: 62.5 µg/mL (≈ 319 µM)

Q: What about the MIC [15] of the same compound?
A: 62.5 µg/mL (≈ 319 µM)

Q: And the MIC [16]?
A: 62.5 µg/mL (≈ 319 µM)

Q: And the MIC [17]?
A: 125 µg/mL (≈ 637 µM)

Q: And the MIC [18]?
A: 62.5 µg/mL (≈ 319 µM)

Q: And the MIC [19]?
A: 62.5 µg/mL (≈ 319 µM)

Q: And the MIC [20]?
A: 125 µg/mL (≈ 637 µM)

Q: What about the MIC [21] of the same compound?
A: 62.5 µg/mL (≈ 319 µM)

Q: And the MIC [22]?
A: 125 µg/mL (≈ 637 µM)

Q: What about the MIC [23] of the same compound?
A: 125 µg/mL (≈ 637 µM)

Q: And the MIC [24]?
A: 125 µg/mL (≈ 637 µM)

Q: And the MIC [25]?
A: 125 µg/mL (≈ 637 µM)

Q: What about the MIC [26] of the same compound?
A: 125 µg/mL (≈ 637 µM)

Q: And the MIC [27]?
A: 125 µg/mL (≈ 637 µM)

Q: What about the MIC [28] of the same compound?
A: 125 µg/mL (≈ 637 µM)

Q: What about the MIC [29] of the same compound?
A: 125 µg/mL (≈ 637 µM)

Q: And the MIC [30]?
A: 125 µg/mL (≈ 637 µM)

Q: What about the MIC [31] of the same compound?
A: 62.5 µg/mL (≈ 319 µM)

Q: What about the MIC [32] of the same compound?
A: 62.5 µg/mL (≈ 319 µM)

Q: And the MIC [33]?
A: 62.5 µg/mL (≈ 319 µM)

Q: How did the MIC50 turn out when CC(C)CCOC(=O)c1ccc(O)cc1 [Isoamyl 4-hydroxybenzoate] was run?
A: 62.5 µg/mL (≈ 300 µM)

Q: What about the MIC (ATCC 6538 / MRSA / MSSA) of the same compound?
A: 62.5 µg/mL (≈ 300 µM)

Q: What about the MIC [9] of the same compound?
A: 62.5 µg/mL (≈ 300 µM)

Q: And the MIC [10]?
A: 62.5 µg/mL (≈ 300 µM)

Q: And the MIC [11]?
A: 62.5 µg/mL (≈ 300 µM)

Q: What about the MIC [12] of the same compound?
A: 62.5 µg/mL (≈ 300 µM)

Q: And the MIC [13]?
A: 62.5 µg/mL (≈ 300 µM)

Q: And the MIC [14]?
A: 62.5 µg/mL (≈ 300 µM)

Q: And the MIC [15]?
A: 62.5 µg/mL (≈ 300 µM)

Q: And the MIC [16]?
A: 62.5 µg/mL (≈ 300 µM)

Q: And the MIC [17]?
A: 62.5 µg/mL (≈ 300 µM)

Q: What about the MIC [18] of the same compound?
A: 62.5 µg/mL (≈ 300 µM)

Q: And the MIC [19]?
A: 31.3 µg/mL (≈ 150 µM)

Q: And the MIC [20]?
A: 62.5 µg/mL (≈ 300 µM)

Q: What about the MIC [21] of the same compound?
A: 62.5 µg/mL (≈ 300 µM)

Q: And the MIC [22]?
A: 62.5 µg/mL (≈ 300 µM)

Q: And the MIC [23]?
A: 62.5 µg/mL (≈ 300 µM)

Q: What about the MIC [24] of the same compound?
A: 62.5 µg/mL (≈ 300 µM)

Q: What about the MIC [25] of the same compound?
A: 62.5 µg/mL (≈ 300 µM)

Q: What about the MIC [26] of the same compound?
A: 62.5 µg/mL (≈ 300 µM)

Q: What about the MIC [27] of the same compound?
A: 62.5 µg/mL (≈ 300 µM)

Q: What about the MIC [28] of the same compound?
A: 62.5 µg/mL (≈ 300 µM)

Q: What about the MIC [29] of the same compound?
A: 62.5 µg/mL (≈ 300 µM)

Q: And the MIC [30]?
A: 62.5 µg/mL (≈ 300 µM)

Q: What about the MIC [31] of the same compound?
A: 62.5 µg/mL (≈ 300 µM)

Q: And the MIC [32]?
A: 62.5 µg/mL (≈ 300 µM)

Q: What about the MIC [33] of the same compound?
A: 62.5 µg/mL (≈ 300 µM)
